In US20230363424A1, “COMPOUNDS AND METHODS FOR ENHANCING SWEETNESS OF SWEETENERS” (Conagen Inc., priority 2021, published 2023):

Legend:
Assay type in all cases: in vivo, human
taste panelists [1] = assay: Sweetness enhancing effect with sucrose, 2AFC sip and spit test; conditions: control 5% sucrose solution, n=30
Method: (§1) The sweetness enhancing effect of Compounds (1), (2), and (3) when used with certain sweeteners (specifically, sucrose or rebaudioside M) was evaluated using a two-alternative forced choice “sip and spit” method (2AFC). The 2AFC test used for compound evaluation was a double-blinded and randomized test where taste panelists (n=30) evaluated a pair of sweetener solutions at a time—one sample contains aqueous sweetener solution plus compound (test sample), while the other contains the aqueous sweetener solution without compound (control). Each test sample was compared against a positive control. For example, if the test sample contained 5% sucrose solution with Compound (1), the positive control contained a 5% sucrose solution (i.e., without Compound (1)). Panelists were instructed not to eat or drink (except water) for at least 1 hour before the test. During the test panelists were instructed to sip each sample, swirl it around their mouth and then expectorate. After tasting each sample in the pair, panelists were instructed to record the sample that is “sweeter” in taste. Panelists cleansed their palates by rinsing with water, eating a cracker and waiting for an interval of about 5 minutes. All samples were tested at ambient temperatures.

taste panelists [2] = assay: Inherent sweetness, two-alternative forced choice sip and spit (2AFC) vs 1.5% sucrose control; conditions: control 1.5% sucrose, n=30
Method: The inherent sweetness of Compounds (1), (2), and (3) as perceived by human subjects was evaluated using a two-alternative forced choice “sip and spit” method (2AFC). The 2AFC test used for compound evaluation was a double-blinded and randomized test where taste panelists (n=30) evaluated a pair of sweetener solutions at a time—one sample is a 1.5% sucrose control, while the other is an aqueous solution containing a test compound at the indicated concentration. Panelists were instructed not to eat or drink (except water) for at least 1 hour before the test. During the test panelists were instructed to sip each sample, swirl it around their mouth and then expectorate. […] Panelists cleansed their palates by rinsing with water, eating a cracker and waiting for an interval of about 5 minutes. All samples were tested at ambient temperatures.

taste panelists [3] = assay: Sweetness enhancing effect with rebaudioside M, 2AFC sip and spit test; conditions: control 100 ppm Reb M solution, n=30
Method: as §1

[4] = compound 20 ppm in aqueous solution
[5] = compound 50 ppm in aqueous solution
[6] = compound 80 ppm in aqueous solution
[7] = compound 20 ppm in 100 ppm Reb M solution

Structure (SMILES)	panelists who chose Test Sample as sweeter than Control (taste panelists [1]; compound 60 ppm in 5% sucrose solution)	panelists who chose Sample as comparable in sweetness to Control (taste panelists [2]; [4])	panelists who chose Sample as comparable in sweetness to Control (taste panelists [2]; [5])	panelists who chose Sample as comparable in sweetness to Control (taste panelists [2]; [6])	panelists who chose Sample as sweeter than Control (taste panelists [3]; [7])	panelists who chose Sample as sweeter than Control (taste panelists [1]; compound 20 ppm in 5% sucrose solution)	panelists who chose Sample as sweeter than Control (taste panelists [3]; compound 40 ppm in 100 ppm Reb M solution)	panelists who chose Sample as sweeter than Control (taste panelists [1]; compound 40 ppm in 5% sucrose solution)
Cc1cc(O)c2c(c1)OC(=O)CC2c1ccc(O)c(O)c1 (stereo not drawn) [Compound (1), 4-(3,4-dihydroxyphenyl)-5-hydroxy-7-methylchroman-2-one]	21 of 30 panelists	1 of 30 panelists chose Sample as	2 of 30 panelists chose Sample as	2 of 30 panelists chose Sample as	29 of 30 panelists			
COc1cc(C2CC(=O)Oc3cccc(O)c32)ccc1O (stereo not drawn) [Compound (3), 5-hydroxy-4-(4-hydroxy-3-methoxyphenyl)chroman-2-one]		2 of 30 panelists chose Sample as	2 of 30 panelists chose Sample as	1 of 30 panelists chose Sample as		28 of 30 panelists	20 of 30 panelists	
COc1cc(C2CC(=O)Oc3ccc(O)c(C)c32)ccc1O (stereo not drawn) [Compound (2), 6-hydroxy-4-(4-hydroxy-3-methoxyphenyl)-5-methylchroman-2-one]		1 of 30 panelists chose Sample as	1 of 30 panelists chose Sample as	1 of 30 panelists chose Sample as	30 of 30 panelists			29 of 30 panelists
